Laboratory results from the supplement of paper PMC10307832.

How the values were obtained:
Test in all cases: relative viability (nuclei count vs DMSO), 5 days (fraction); higher = more cells survive
ABC-1 = tested on: ABC-1
Summary of the method: (§1)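 One day after seeding in 1536-well plates, lung cancer cell lines were dosed by pin tool. Dosing was either single-drug or a fixed anchor-drug dose plus five library-drug doses (not always all listed) in √10 steps. After 5 days, nuclei were stained in one fix-and-stain step and counted on 4× images, and relative viability is the nuclei count of treated wells over that of vehicle wells, given as the median of duplicate plates.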

NCI-H2228 = tested on: NCI-H2228
Summary of the method: as §1

NCI-H2009 = tested on: NCI-H2009
Summary of the method: as §1

NCI-H1703 = tested on: NCI-H1703
Summary of the method: as §1

NCI-H1623 = tested on: NCI-H1623
Summary of the method: as §1

NCI-H1299 = tested on: NCI-H1299
Summary of the method: as §1

Calu-6 = tested on: Calu-6
Summary of the method: as §1

IA-LM = tested on: IA-LM
Summary of the method: as §1

EMC-BAC-2 = tested on: EMC-BAC-2
Summary of the method: as §1

EBC-1 = tested on: EBC-1
Summary of the method: as §1

A549 = tested on: A549
Summary of the method: as §1

NCI-H1648 = tested on: NCI-H1648
Summary of the method: as §1

In the case of `CN1CCN(CCOc2cc(OC3CCOCC3)c3c(Nc4c(Cl)ccc5c4OCO5)ncnc3c2)CC1` [Saracatinib] + COc1cc2c(Oc3ccc(NC(=O)C4(C(=O)Nc5ccc(F)cc5)CC4)cc3F)ccnc2cc1OCCCN1CCOCC1 [Foretinib] (partner 0.25 µM), the relative viability (ABC-1; first compound 0.02 µM) is reported as 1.08, the relative viability (ABC-1; first compound 0.2 µM) is reported as 0.975 and the relative viability (ABC-1; first compound 0.6325 µM) is reported as 0.998. It also gave a relative viability (ABC-1; first compound 2 µM) of 1.01, a relative viability (NCI-H2228; first compound 0.02 µM) of 0.765 and a relative viability (NCI-H2228; first compound 0.2 µM) of 0.733. The relative viability (NCI-H2228; first compound 0.6325 µM) was 0.873, the relative viability (NCI-H2228; first compound 2 µM) was 0.591 and the relative viability (NCI-H2009; first compound 0.02 µM) was 1.22. It also gave a relative viability (NCI-H2009; first compound 0.2 µM) of 1.14, a relative viability (NCI-H2009; first compound 0.6325 µM) of 0.951 and a relative viability (NCI-H2009; first compound 2 µM) of 1.03. The relative viability (NCI-H1703; first compound 0.02 µM) was 0.38, the relative viability (NCI-H1703; first compound 0.2 µM) was 0.319 and the relative viability (NCI-H1703; first compound 0.6325 µM) was 0.251. It also gave a relative viability (NCI-H1703; first compound 2 µM) of 0.259, a relative viability (NCI-H1623; first compound 0.02 µM) of 0.876 and a relative viability (NCI-H1623; first compound 0.2 µM) of 0.723. For the same compound, the relative viability (NCI-H1623; first compound 0.6325 µM) was 0.908, the relative viability (NCI-H1623; first compound 2 µM) was 0.681 and the relative viability (NCI-H1299; first compound 0.02 µM) was 1.11. It also gave a relative viability (NCI-H1299; first compound 0.2 µM) of 1.08, a relative viability (NCI-H1299; first compound 0.6325 µM) of 1.21 and a relative viability (NCI-H1299; first compound 2 µM) of 1.14. It also gave a relative viability (Calu-6; first compound 0.02 µM) of 0.813, a relative viability (Calu-6; first compound 0.2 µM) of 0.579 and a relative viability (Calu-6; first compound 0.6325 µM) of 0.684. The relative viability (Calu-6; first compound 2 µM) was 0.581, the relative viability (IA-LM; first compound 0.02 µM) was 1.13 and the relative viability (IA-LM; first compound 0.2 µM) was 1.28. It also gave a relative viability (IA-LM; first compound 0.6325 µM) of 1.01, a relative viability (IA-LM; first compound 2 µM) of 0.912 and a relative viability (EMC-BAC-2; first compound 0.02 µM) of 1.01. The relative viability (EMC-BAC-2; first compound 0.2 µM) was 0.8, the relative viability (EMC-BAC-2; first compound 0.6325 µM) was 1.01 and the relative viability (EMC-BAC-2; first compound 2 µM) was 0.704. The relative viability (EBC-1; first compound 0.02 µM) was 0.0938, the relative viability (EBC-1; first compound 0.2 µM) was 0.111 and the relative viability (EBC-1; first compound 0.6325 µM) was 0.108. The relative viability (EBC-1; first compound 2 µM) was 0.106, the relative viability (A549; first compound 0.02 µM) was 0.864 and the relative viability (A549; first compound 0.6325 µM) was 0.8. For the same compound, the relative viability (A549; first compound 2 µM) was 0.841.
`CN1CCN(CCOc2cc(OC3CCOCC3)c3c(Nc4c(Cl)ccc5c4OCO5)ncnc3c2)CC1` [Saracatinib] + COc1cccc2cc(-c3nc([C@H]4CC[C@H](C(=O)O)CC4)n4ncnc(N)c34)[nH]c12 [OSI-027] (partner 0.5 µM) gave a relative viability (ABC-1; first compound 0.02 µM) of 0.428, a relative viability (ABC-1; first compound 0.2 µM) of 0.65 and a relative viability (ABC-1; first compound 0.6325 µM) of 0.547. The relative viability (ABC-1; first compound 2 µM) was 0.543, the relative viability (NCI-H2228; first compound 0.02 µM) was 0.719 and the relative viability (NCI-H2228; first compound 0.2 µM) was 0.343. For the same compound, the relative viability (NCI-H2228; first compound 0.6325 µM) was 0.529, the relative viability (NCI-H2228; first compound 2 µM) was 0.381 and the relative viability (NCI-H2009; first compound 0.02 µM) was 0.628. For the same compound, the relative viability (NCI-H2009; first compound 0.2 µM) was 0.547, the relative viability (NCI-H2009; first compound 0.6325 µM) was 0.579 and the relative viability (NCI-H2009; first compound 2 µM) was 0.357. The relative viability (NCI-H1623; first compound 0.02 µM) was 0.441, the relative viability (NCI-H1623; first compound 0.2 µM) was 0.388 and the relative viability (NCI-H1623; first compound 0.6325 µM) was 0.404. It also gave a relative viability (NCI-H1623; first compound 2 µM) of 0.357, a relative viability (NCI-H1648; first compound 0.02 µM) of 0.265 and a relative viability (NCI-H1648; first compound 0.6325 µM) of 0.262. It also gave a relative viability (NCI-H1648; first compound 2 µM) of 0.283, a relative viability (EMC-BAC-2; first compound 0.02 µM) of 0.412 and a relative viability (EMC-BAC-2; first compound 0.2 µM) of 0.322. The relative viability (EMC-BAC-2; first compound 0.6325 µM) was 0.355 and the relative viability (EMC-BAC-2; first compound 2 µM) was 0.297.
`CN1CCN(CCOc2cc(OC3CCOCC3)c3c(Nc4c(Cl)ccc5c4OCO5)ncnc3c2)CC1` [Saracatinib] + Cc1cc(Nc2cc(N3CCN(C)CC3)nc(Sc3ccc(NC(=O)C4CC4)cc3)n2)n[nH]1 [Tozasertib] (partner 0.1 µM) gave a relative viability (ABC-1; first compound 0.02 µM) of 0.157, a relative viability (ABC-1; first compound 0.2 µM) of 0.164 and a relative viability (ABC-1; first compound 0.6325 µM) of 0.169. The relative viability (ABC-1; first compound 2 µM) was 0.14, the relative viability (NCI-H2228; first compound 0.02 µM) was 0.222 and the relative viability (NCI-H2228; first compound 0.2 µM) was 0.148. The relative viability (NCI-H2228; first compound 0.6325 µM) was 0.213, the relative viability (NCI-H2228; first compound 2 µM) was 0.154 and the relative viability (NCI-H2009; first compound 0.02 µM) was 0.655. The relative viability (NCI-H2009; first compound 0.2 µM) was 0.715, the relative viability (NCI-H2009; first compound 0.6325 µM) was 0.5 and the relative viability (NCI-H2009; first compound 2 µM) was 0.609. It also gave a relative viability (NCI-H1623; first compound 0.02 µM) of 0.447, a relative viability (NCI-H1623; first compound 0.2 µM) of 0.443 and a relative viability (NCI-H1623; first compound 0.6325 µM) of 0.456. For the same compound, the relative viability (NCI-H1623; first compound 2 µM) was 0.348, the relative viability (NCI-H1648; first compound 0.02 µM) was 0.629 and the relative viability (NCI-H1648; first compound 0.6325 µM) was 0.813. It also gave a relative viability (NCI-H1648; first compound 2 µM) of 0.362, a relative viability (EMC-BAC-2; first compound 0.02 µM) of 0.265 and a relative viability (EMC-BAC-2; first compound 0.2 µM) of 0.256. For the same compound, the relative viability (EMC-BAC-2; first compound 0.6325 µM) was 0.286 and the relative viability (EMC-BAC-2; first compound 2 µM) was 0.271.
